Measurements as given in PMC7738871, “Covalent modification of Keap1 at Cys77 and Cys434 by pubescenoside a suppresses oxidative stress-induced NLRP3 inflammasome activation in myocardial ischemia-reperfusion injury” (Theranostics, 2021).

What was measured:
Keap1 = tested on: T1, Keap1; assay: Pull-down with PBA-Sepharose 4B beads, cell lysate; format: binding; settings: 4 °C, immunoblot, Sepharose 4B beads only as negative control
T1 construct: endogenous in cells; host or cells: RAW264.7
Experimental: (§1) PBA-Sepharose 4B beads were created by dissolving PBA in coupling buffer (100 mM NaHCO3, pH 8.3, 0.5 M NaCl). After washing with 1 mM HCl medium, Sepharose 4B beads were mixed with PBA coupling buffer and slowly rotated overnight at 4 °C. Excess PBA was washed away with coupling buffer and any remaining active groups were blocked with 0.1 M Tris-HCl buffer (pH 8.0) for 2 h. The medium was then washed with 0.1 M acetate buffer (pH 4.0) containing 0.5 M NaCl followed by a wash with 0.1 M Tris-HCl (pH 8.0) that also contained 0.5 M NaCl. PBA-Sepharose 4B beads were ready for use in the pull-down assay. The RAW264.7 cellular supernatant fraction (600 µg) was incubated with either PBA-Sepharose 4B or Sepharose 4B as a negative control in reaction buffer (50 mM Tris-HCl, pH 7.5, 5 mM EDTA, 150 mM NaCl, 1 mM DTT, 0.01% NP-40, 2 µg/mL of BSA, 0.02 mM PMSF, 1 × protease inhibitor cocktail). After incubation with gentle rocking overnight at 4 °C, the beads were washed five times with wash buffer (50 mM Tris-HCl, pH 7.5, 5 mM EDTA, 150 mM NaCl, 1 mM DTT, 0.01% NP-40, 0.02 mM PMSF) and proteins bound to the beads were analyzed by immunoblotting assay with a Keap1 antibody.

[1] = tested on: recombinant Keap1 mutant proteins; assay: Pull-down of recombinant Keap1 mutants with PBA-Sepharose 4B; format: binding, human; settings: cysteine to serine mutants
Experimental: as §1
The mutant plasmid DNA was obtained by PCR. The PCR products were cleaved by DpnI restriction enzymes. […] Colonies were evaluated by colony PCR and sequenced. […]

NLRP3 inflammasome = assay: OGD/R-induced NLRP3 inflammasome activation in H9c2; format: cell-based, rat; settings: H9c2, OGD 6 h, reperfusion 18 h, dose-dependent
Experimental: For OGD/R treatment, H9c2 cells were washed twice with phosphate buffered saline (PBS). The medium was changed to glucose and serum free DMEM, and H9c2 cells were incubated in an incubator with 95% N2 and 5% CO2 at 37 °C. After 6 h, the medium was replaced with DMEM containing 10% FBS and 1% PS. Then H9c2 cells were returned to a normal incubator with 5% CO2 balanced with air at 37 °C for the indicated time.
Total protein was isolated from H9c2 cells, primary mouse cardiomyocytes, RAW264.7 cells and heart tissue using 1X RIPA buffer containing phosphatase and proteinase inhibitors at 4 °C. After measurement of the concentration, the cell lysates were separated by sodium dodecyl sulphate polyacrylamide gel electrophoresis (SDS-PAGE) and transferred to polyvinylidene fluoride (PVDF) membranes. […] After the membranes was washed by TBST buffer for three times, they were incubated with horseradish peroxidase (HRP)-conjugated secondary mouse or rabbit antibodies (1:3,000 dilution) at room temperature (RT) for 1.5 h and then detected by SuperEnhanced chemiluminescence (ECL) reaction reagents (GBCBIO Technologies Inc., Guangzhou, Guangdong, China). […] After letting the membranes stand for 1-2 min, the bands of the respective proteins were detected with the exposure time of 10 ~60 s.

[2] = tested on: Nrf2 knockdown H9c2 cells; assay: OGD/R viability in Nrf2 siRNA knockdown H9c2; format: cell-based, rat; settings: Nrf2 siRNA 24 h, H9c2, MTT
Experimental: Cell viability was determined by MTT assays. PBA was prepared to a stock solution dissolved in dimethyl sulfoxide (DMSO). RAW264.7, H9c2 cells, primary mouse cardiomyocytes were treated with different doses of PBA, and DMSO only as control for 48 h for the toxicity. In addition, H9c2 cells or primary mouse cardiomyocytes were treated with the indicated doses of PBA, diazoxide as positive control, DMSO only as control, then cultured with or without OGD/R treatment. At the end of the experiments, MTT was added into each well at the concentration of 0.5 mg/ml, and incubated at 37 °C for 4 h. After removal of the supernatant, 150 μL of DMSO was added to solubilize the formazan products. And the solution was measured at the absorbance of 490 nm by a spectrophotometer (Thermo Fisher Scientific, MA, USA). The results of the MTT assay in all groups were normalized to the control group with DMSO only treatment.
For transient transfection, HiPerFect Transfection Reagent (Qiagen, German) was used according to the manufacturer's instructions. Nrf2 siRNA (h) (sc-156128) and control siRNA-A (sc-37007) were bought from Santa Cruz Biotechnology. Briefly, H9c2 cells were seeded in 96-well plate at the density of 2x10^4 cells per well or 12-well plate at the density of 3x10^5 cells per well. According to preliminary results, transfection with siRNA for 24 h could get a better knockdown effect. […]

## C=C(COC(=O)C=Cc1ccc(O)c(O)c1)C(O)COC1OC(CO)C(O)C(O)C1O (centres unmarked) [PBA, pubescenoside A]
Keap1
  binding of Keap1 to PBA-Sepharose 4B beads (pull-down): could bind
[1]
  binding of Keap1 mutants of Cys434, Cys77, Cys23 and Cys38 (pull-down): lost the capacity to bind
  binding of other Keap1 mutants (pull-down): retained their high binding affinity
NLRP3 inflammasome
  OGD/R-induced inflammasome activation (NLRP3, cleaved-caspase1, mature IL-1β): substantially inhibited
[2]
  cardioprotection against OGD/R after Nrf2 knockdown: blocked
